For four molecules, IC50 results are on record in patent US4895853A, “Antitumor alkaloids” (priority 1986, dated 1990).

The test system of this assay is P388 mouse leukemia cells. The assay is described as follows: P388 mouse leukemia cell assay (growth inhibition, 48 h). In kind it is cell-based. The settings on record: read-out: P388 IC50. The method, then: The following assay method was utilized to illustrate the antitumor effectiveness of the compositions of Formulae I-V corresponding to manzamines B-D of the examples.
P388 mouse leukemia cells are grown in Dulbecco MEM medium with 10% horse serum, 4 mM glutamine, and 20 ug/ml gentamycin (Biologos, Inc.). Cells are incubated in 10% CO2 and subcultured 2 times per week.
1. Add compound to each well of a 24-well plate or tube and allow solvent to evaporate to dryness.
2. Add 2 ml (1.2×10^5) cells to each well or tube and mix.
3. Incubate in 10% CO2 at 37° for 48 hours.
4. Read platees with an inverted microscope, scoring activity from 1+ to 4+ as follows: ND (not detectable), >90%; 1+, 75-90%; 2+, 50-74%; 3+, 25-49%; 4+, <25% of control growth. Cell counts are performed on each tube and results are reported as percent of control. Alternatively, scoring may be expressed as IC50 which represents the minimum concentration of the composition required to inhibit 50% of the cell growth on the plate. […]

≈ marks a conversion by molar mass, not a printed value. Like-named read-outs stand apart in the source and are kept apart here.

Consider `OC12C=C(c3nccc4c3[nH]c3ccccc34)C3CCN(CCCC/C=C\CC1)CC31CC3/C=C\CCCCN3C21` (stereo not shown) [Manzamine A, manzamine A, reference compound], for which, for the setting “Mus musculus, P388, 48 h”, the IC50 came to 0.075 µg/mL (≈ 0.137 µM).

`C1=C\CCC23CN4CCCC/C=C\CCC5(OC5C(c5nccc6c5[nH]c5ccccc56)C2CC4)C3NCCCC/1` (stereo not shown) [Manzamine B, manzamine B]: the IC50 (Mus musculus, P388, 48 h) came out at 6 µg/mL (≈ 10.9 µM).

For the molecule `C1=C\CCCCN(CCc2nccc3c2[nH]c2ccccc23)CCCC/1` [Manzamine C, manzamine C], the IC50 (P388 mouse leukemia cells, 48 hours at 37°, 10% CO2) was 3 µg/mL (≈ 8.63 µM).

On to `OC12C=C(C3NCCc4c3[nH]c3ccccc43)C3CCN(CCCC/C=C\CC1)CC31CC3/C=C\CCCCN3C21` (stereo not shown) [Manzamine D, manzamine D], for which the IC50 (Mus musculus, P388, 48 h) worked out at 0.5 µg/mL (≈ 0.904 µM).
